Read-outs that look alike come from different tables or passages of the source.
Key:
Assay type in all cases: cell-based
CCRF-CEM = assay: NCI60 five-dose screen, Leukemia; details: Homo sapiens, Leukemia, five-dose screen, read-out: GI50
K-562 = assay: NCI60 five-dose screen, Leukemia; details: Homo sapiens, K562; K-562, Leukemia; five-dose screen; read-out: GI50
SR = assay: NCI60 five-dose screen, Leukemia; details: Homo sapiens, Leukemia, five-dose screen, read-out: GI50
HOP-92 = assay: NCI60 five-dose screen, Non-small Cell Lung Cancer; details: Homo sapiens; HOP-92, Non-small Cell Lung Cancer; five-dose screen; read-out: GI50
NCI-H226 = assay: NCI60 five-dose screen, Non-small Cell Lung Cancer; details: Homo sapiens; NCI-H226, Non-small Cell Lung Cancer; five-dose screen; read-out: GI50
NCI-H322M = assay: NCI60 five-dose screen, Non-small Cell Lung Cancer; details: Homo sapiens, Non-small Cell Lung Cancer, five-dose screen, read-out: GI50
NCI-H460 = assay: NCI60 five-dose screen, Non-small Cell Lung Cancer; details: Homo sapiens; NCI-H460, Non-small Cell Lung Cancer; five-dose screen; read-out: GI50
COLO 205 = assay: NCI60 five-dose screen, Colon Cancer; details: Homo sapiens; COLO 205, Colon Cancer; five-dose screen; read-out: GI50
HCT-116 = assay: NCI60 five-dose screen, Colon Cancer; details: Homo sapiens; HCT-116, Colon Cancer; five-dose screen; read-out: GI50
KM12 = assay: NCI60 five-dose screen, Colon Cancer; details: Homo sapiens; KM12, Colon Cancer; five-dose screen; read-out: GI50
SW-620 = assay: NCI60 five-dose screen, Colon Cancer; details: Homo sapiens; SW-620, Colon Cancer; five-dose screen; read-out: GI50
SNB-19 = assay: NCI60 five-dose screen, CNS Cancer; details: Homo sapiens; SNB-19, CNS Cancer; five-dose screen; read-out: GI50
SNB-75 = assay: NCI60 five-dose screen, CNS Cancer; details: Homo sapiens; SNB-75, CNS Cancer; five-dose screen; read-out: GI50
MALME-3M = assay: NCI60 five-dose screen, Melanoma; details: Homo sapiens; MALME-3M, Melanoma; five-dose screen; read-out: GI50
MDA-MB-435 = assay: NCI60 five-dose screen, Melanoma; details: Homo sapiens; MDA-MB-435, Melanoma; five-dose screen; read-out: GI50
SK-MEL-2 = assay: NCI60 five-dose screen, Melanoma; details: Homo sapiens; SK-MEL-2, Melanoma; five-dose screen; read-out: GI50
SK-MEL-28 = assay: NCI60 five-dose screen, Melanoma; details: Homo sapiens; SK-MEL-28, Melanoma; five-dose screen; read-out: GI50
UACC-62 = assay: NCI60 five-dose screen, Melanoma; details: Homo sapiens; UACC-62, Melanoma; five-dose screen; read-out: GI50
IGROV1 = assay: NCI60 five-dose screen, Ovarian Cancer; details: Homo sapiens, IGROV-1; IGROV1, Ovarian Cancer; five-dose screen; read-out: GI50
OVCAR-3 = assay: NCI60 five-dose screen, Ovarian Cancer; details: Homo sapiens; OVCAR-3, Ovarian Cancer; five-dose screen; read-out: GI50
OVCAR-4 = assay: NCI60 five-dose screen, Ovarian Cancer; details: Homo sapiens; OVCAR-4, Ovarian Cancer; five-dose screen; read-out: GI50
NCI/ADR-RES = assay: NCI60 five-dose screen, Ovarian Cancer; details: Homo sapiens, Ovarian Cancer, five-dose screen, read-out: GI50
ACHN = assay: NCI60 five-dose screen, Renal Cancer; details: Homo sapiens, Renal Cancer, five-dose screen, read-out: GI50
CAKI-1 = assay: NCI60 five-dose screen, Renal Cancer; details: Homo sapiens; CAKI-1, Renal Cancer; five-dose screen; read-out: GI50
SN12C = assay: NCI60 five-dose screen, Renal Cancer; details: Homo sapiens, Renal Cancer, five-dose screen, read-out: GI50
TK-10 = assay: NCI60 five-dose screen, Renal Cancer; details: Homo sapiens; TK-10, Renal Cancer; five-dose screen; read-out: GI50
UO-31 = assay: NCI60 five-dose screen, Renal Cancer; details: Homo sapiens; UO-31, Renal Cancer; five-dose screen; read-out: GI50
PC-3 = assay: NCI60 five-dose screen, Prostate Cancer; details: Homo sapiens; PC-3, Prostate Cancer; five-dose screen; read-out: GI50
DU-145 = assay: NCI60 five-dose screen, Prostate Cancer; details: Homo sapiens; DU-145, Prostate Cancer; five-dose screen; read-out: GI50
MDA-MB231ATCC = assay: NCI60 five-dose screen, Breast Cancer; details: Homo sapiens, MDA-MB-231; MDA-MB231ATCC, Breast Cancer; five-dose screen; read-out: GI50
HS 578T = assay: NCI60 five-dose screen, Breast Cancer; details: Homo sapiens; HS 578T, Breast Cancer; five-dose screen; read-out: GI50
BT-549 = assay: NCI60 five-dose screen, Breast Cancer; details: Homo sapiens; BT-549, Breast Cancer; five-dose screen; read-out: GI50
T-47D = assay: NCI60 five-dose screen, Breast Cancer; details: Homo sapiens, T47D; T-47D, Breast Cancer; five-dose screen; read-out: GI50
[1] = test system: 60 human tumor cell lines (NCI60); assay: NCI60 five-dose screen, whole panel and sub-panel means; details: Homo sapiens
[2] = 60 cell, mean over all 60 cell lines, read-out: GI50 Mean
[3] = mean over Breast Cancer panel, read-out: GI50 Mean
[4] = mean over CNS Cancer panel, read-out: GI50 Mean
[5] = mean over Colon Cancer panel, read-out: GI50 Mean
[6] = mean over Leukemia panel, read-out: GI50 Mean
[7] = mean over Melanoma panel, read-out: GI50 Mean
[8] = mean over Non-small Cell Lung Cancer panel, read-out: GI50 Mean
[9] = mean over Ovarian Cancer panel, read-out: GI50 Mean
[10] = mean over Prostate Cancer panel, read-out: GI50 Mean
[11] = mean over Renal Cancer panel, read-out: GI50 Mean

With `CC[C@]12C=CCN3CC[C@@]4(c5ccc(OC)cc5N(C)[C@H]4[C@@](O)(C(=O)OC)[C@@H]1OC(=O)CCCN1CCN(Cc4ccc(C(F)(F)F)cc4)CC1)[C@@H]32` [Compound 23] the GI50 (CCRF-CEM) was 2040 nM, the GI50 (K-562) was 1700 nM and the GI50 (SR) was 1660 nM. It also gave a GI50 (HOP-92) of 1510 nM, a GI50 (NCI-H226) of 2040 nM and a GI50 (NCI-H322M) of 2240 nM. It also gave a GI50 (NCI-H460) of 1550 nM, a GI50 (COLO 205) of 1580 nM and a GI50 (HCT-116) of 1700 nM. For the same molecule, the GI50 (KM12) was 1740 nM, the GI50 (SW-620) was 1550 nM and the GI50 (SNB-19) was 1580 nM. For the same molecule, the GI50 (SNB-75) was 1450 nM, the GI50 (MALME-3M) was 1580 nM and the GI50 (MDA-MB-435) was 1480 nM. The GI50 (SK-MEL-2) was 1780 nM, the GI50 (SK-MEL-28) was 1620 nM and the GI50 (UACC-62) was 1660 nM. The GI50 (IGROV1) was 1780 nM, the GI50 (OVCAR-3) was 1550 nM and the GI50 (OVCAR-4) was 2040 nM. The GI50 (NCI/ADR-RES) was 1580 nM, the GI50 (ACHN) was 1780 nM and the GI50 (CAKI-1) was 1480 nM. It also gave a GI50 (SN12C) of 2090 nM, a GI50 (TK-10) of 1660 nM and a GI50 (UO-31) of 1580 nM. It also gave a GI50 (PC-3) of 1580 nM, a GI50 (DU-145) of 1580 nM and a GI50 (MDA-MB231ATCC) of 1740 nM. The GI50 (HS 578T) was 1510 nM, the GI50 (BT-549) was 1660 nM and the GI50 (T-47D) was 1740 nM. For the same molecule, the GI50 [1, 2] was 1650 nM, the GI50 [1, 3] was 1530 nM and the GI50 [1, 4] was 1570 nM. For the same molecule, the GI50 [1, 5] was 1640 nM, the GI50 [1, 6] was 1710 nM and the GI50 [1, 7] was 1620 nM. The GI50 [1, 8] was 1800 nM, the GI50 [1, 9] was 1770 nM and the GI50 [1, 10] was 1580 nM. For the same molecule, the GI50 [1, 11] was 1630 nM and the GI50 ([1]; on almost all cell lines, five-dose screen, read-out: GI50) was < 2000 nM.

With `CC[C@]12C=CCN3CC[C@@]4(c5ccc(OC)cc5N(C)[C@H]4[C@@](O)(C(=O)OC)[C@@H]1OC(=O)CCCN1CCN(Cc4ccc(F)cc4)CC1)[C@@H]32` [Compound 24] the GI50 (CCRF-CEM) was 4070 nM, the GI50 (K-562) was 2400 nM and the GI50 (SR) was 3470 nM. For the same molecule, the GI50 (HOP-92) was 1660 nM, the GI50 (NCI-H226) was 10500 nM and the GI50 (NCI-H322M) was 8320 nM. It also gave a GI50 (NCI-H460) of 8510 nM, a GI50 (COLO 205) of 1950 nM and a GI50 (HCT-116) of 5620 nM. It also gave a GI50 (KM12) of 10500 nM, a GI50 (SW-620) of 13500 nM and a GI50 (SNB-19) of 11500 nM. For the same molecule, the GI50 (SNB-75) was 1120 nM, the GI50 (MALME-3M) was 2290 nM and the GI50 (MDA-MB-435) was 5500 nM. For the same molecule, the GI50 (SK-MEL-2) was 15100 nM, the GI50 (SK-MEL-28) was 4680 nM and the GI50 (UACC-62) was 11500 nM. The GI50 (IGROV1) was 2510 nM, the GI50 (OVCAR-3) was 10700 nM and the GI50 (OVCAR-4) was 5370 nM. For the same molecule, the GI50 (NCI/ADR-RES) was 11800 nM, the GI50 (ACHN) was 5890 nM and the GI50 (CAKI-1) was 2240 nM. The GI50 (SN12C) was 8320 nM, the GI50 (TK-10) was 4900 nM and the GI50 (UO-31) was 3090 nM. The GI50 (PC-3) was 4170 nM, the GI50 (DU-145) was 10500 nM and the GI50 (MDA-MB231ATCC) was 2820 nM. For the same molecule, the GI50 (HS 578T) was 4070 nM, the GI50 (BT-549) was 7240 nM and the GI50 (T-47D) was 5620 nM. The GI50 [1, 2] was 6840 nM, the GI50 [1, 3] was 4250 nM and the GI50 [1, 4] was 8080 nM. For the same molecule, the GI50 [1, 5] was 6090 nM, the GI50 [1, 6] was 3190 nM and the GI50 [1, 7] was 5920 nM. It also gave a GI50 [1, 8] of 9830 nM, a GI50 [1, 9] of 10100 nM and a GI50 [1, 10] of 7320 nM. For the same molecule, the GI50 [1, 11] was 5580 nM.

From publication PMC11277489, “Novel Piperazine Derivatives of Vindoline as Anticancer Agents” (International Journal of Molecular Sciences, 2024)
